The record followed here is ChEMBL document CHEMBL4350974, “Synthesis and biological evaluation of methylpyrimidine-fused tricyclic diterpene analogs as novel oral anti-late-onset hypogonadism agents” (Eur J Med Chem, 2019).

Activity calls are given as the source filed them. No cut-off for these calls is given here. Some results are limits rather than exact numbers.

Data set [1] can be described thus: Cytotoxicity against mouse TM3 cells assessed as reduction in cell viability measured after 24 hrs by sulforhodamine B assay. Type of data set: cell-based.
In the next data set the test system is TM3. Description: Induction of testosterone production in mouse TM3 cells assessed as increase in testosterone level at 20 uM measured after 24 hrs by ELISA relative to control. It counts as functional. (In general: In an ELISA, binding on a coated surface is turned into a signal by an enzyme label.)
For data set [2], the species on record is Rattus norvegicus. Description: Potency index, ratio of test compound effect to testosterone effect for anti late-onset hypogonadism activity in cyclophosphamide-induced Sprague-Dawley rat model of partial androgen deficiency assessed as inhibition of Leydig cells apoptosis. Type of data set: functional.
Data set [3] concerns Rattus norvegicus. Briefly: Anti late-onset hypogonadism activity in cyclophosphamide-induced Sprague-Dawley rat model of partial androgen deficiency assessed as inhibition of Leydig cells apoptosis at 10 mg/kg, sc administered for every 3 days up to 4 weeks by DAPI staining based TUNEL assay. Type of data set: functional, organism-based.
The test system of data set [4] is Rattus norvegicus. Briefly: Anti late-onset hypogonadism activity in cyclophosphamide-induced Sprague-Dawley rat model of partial androgen deficiency assessed as weight of testis at 10 mg/kg, sc administered for every 3 days for 4 weeks (reference value: 1.47 +/- 0.13 g). Type of data set: functional.
Data set [5] relates to Rattus norvegicus. Briefly: Anti late-onset hypogonadism activity in cyclophosphamide-induced Sprague-Dawley rat model of partial androgen deficiency assessed as intratesticular testosterone level at 10 mg/kg, sc administered for every 3 days up to 4 weeks ELISA (reference value: 137.99 +/- 19.27 nmol/L). It counts as functional.
The nature of data set [6]: Toxicity in cyclophosphamide - induced Sprague-Dawley rat model of partial androgen deficiency assessed as sperm motility by semen analysis (reference value: 88.3 +/- 7.3 %). The settings on record: in vivo.
Data set [7] relates to Rattus norvegicus. Briefly: Anti late-onset hypogonadism activity in cyclophosphamide-induced Sprague-Dawley rat model of partial androgen deficiency assessed as weight of seminal vesicles at 10 mg/kg, sc administered for every 3 days for 4 weeks Rvb = 1.33 +/- 0.26 g). It counts as functional.
Data set [8] relates to Rattus norvegicus. Briefly: Anti late-onset hypogonadism activity in cyclophosphamide-induced Sprague-Dawley rat model of partial androgen deficiency assessed as increase in free testosterone level at 10 mg/kg, sc administered for every 3 days up to 4 weeks and measured every 2 weeks by ELISA. Type of data set: functional, organism-based.
Data set [9] can be described thus: Toxicity in cyclophosphamide - induced Sprague-Dawley rat model of partial androgen deficiency assessed as sperm viability by semen analysis (reference value: 95.1 +/- 3.2 %).
Data set [10] in a line: Toxicity in cyclophosphamide-induced Sprague-Dawley rat model of partial androgen deficiency assessed as decrease in body weight at 10 mg/kg, sc administered for every 3 days up to 4 weeks and measured every 3 days. Type of data set: organism-based. To be noted: in vivo.
The test system of data set [11] is Rattus norvegicus. Briefly: Anti late-onset hypogonadism activity in cyclophosphamide-induced Sprague-Dawley rat model of partial androgen deficiency assessed as increase in serum total testosterone level at 10 mg/kg, sc administered for every 3 days up to 4 weeks and measured every 2 weeks by ELISA. Type of data set: functional, organism-based.

`COc1ccc2c(c1)[C@@]1(C)Cc3nccnc3C(C)(C)C1CC2` (some centres not stated): the CC50 – broadly, the concentration that lowers cell viability or growth by half – at 24 h in [1] is 71.3 µM. In addition, the Activity in the data set with TM3 stood at 134%.
For `COc1ccc2c(c1)[C@@]1(C)Cc3c([nH]c4ccccc34)C(C)(C)C1CC2` (some centres not stated) the same measures were under 50 µM and 183.4%.
The matching figures for `COc1ccc2c(c1)[C@@]1(C)Cc3c(n[nH]c3C(=O)O)C(C)(C)C1CC2` (some centres not stated): over 200 µM and 128.2%.
For `COc1ccc2c(c1)[C@@]1(C)Cc3sc(N)nc3C(C)(C)C1CC2` (some centres not stated), the CC50 at 24 h in data set [1] was under 50 µM. In the data set on TM3, the Activity turned out to be 110.9%.
For `COc1ccc2c(c1)[C@@]1(C)Cc3c[nH]nc3C(C)(C)C1CC2` (some centres not stated) the same measures were under 50 µM and 116.6%.
The matching figures for `CCOC(=O)c1[nH]nc2c1C[C@]1(C)c3cc(OC)ccc3CCC1C2(C)C` (some centres not stated): under 50 µM and 160.9%.
For `COc1cc2c(cc1C(N)=O)CCC1C(C)(C)c3nc(C)ncc3C[C@]21C` (mixture of isomers) the same measures were over 200 µM and 169.8%.
As to `C=CCNC(=O)c1cc2c(cc1OC)[C@@]1(C)Cc3cnc(C)nc3C(C)(C)C1CC2` (mixture of isomers), the Activity with TM3 worked out at 142.9%.
Same read-out and setting: under `C#CCOc1ccc2c(c1)[C@@]1(C)Cc3cnc(C)nc3C(C)(C)C1CC2` (mixture of isomers) stands 120.5%.
`CCc1ccc(NC(=O)c2cc3c(cc2OC)[C@@]2(C)Cc4cnc(C)nc4C(C)(C)C2CC3)cc1` (mixture of isomers): in [1], the CC50 at 24 h is under 50 µM. The Activity with TM3 turned out to be 167.8%.
On to `COc1cc2c(cc1C(=O)NN1CCCCC1)CCC1C(C)(C)c3nc(C)ncc3C[C@]21C` (mixture of isomers), for which, in the data set on TM3, the Activity stood at 111.5%.
Still for that read-out and setting: for `COc1ccc2c(c1)[C@@]1(C)Cc3cnc(C)nc3C(C)(C)C1C/C2=N/O` (mixture of isomers) the value was 128.5%; for `CCCNC(=O)c1cc2c(cc1OC)[C@@]1(C)Cc3cnc(C)nc3C(C)(C)C1CC2` (mixture of isomers), 140.9%.
For the compound `COc1cccc(NC(=O)c2cc3c(cc2OC)[C@@]2(C)Cc4cnc(C)nc4C(C)(C)C2CC3)c1` (mixture of isomers), the CC50 at 24 h in [1] was under 50 µM. The Activity in the data set with TM3 was found to be 173.6%.
On to `COc1ccc2c(c1)[C@@]1(C)Cc3cnc(C)nc3C(C)(C)C1C=C2` (mixture of isomers), for which the Activity in the data set with TM3 came to 129.8%.
On the same count and under the same terms, for `Cc1ncc2c(n1)C(C)(C)C1CCc3ccc(OCc4ccccc4)cc3[C@@]1(C)C2` (mixture of isomers) the value was 133%.
As to `COc1cc2c(cc1NC(C)=O)CCC1C(C)(C)c3nc(C)ncc3C[C@]21C` (mixture of isomers), in data set [1], the CC50 at 24 h is over 200 µM. Besides, the Activity with TM3 was determined as 157.6%.
For the compound `COc1ccc2c(c1)[C@@]1(C)Cc3cnc(C)nc3C(C)(C)C1CC2=O` (mixture of isomers), the Activity with TM3 was 109.9%.
For `COc1cc2c(cc1C(=O)O)CCC1C(C)(C)c3nc(C)ncc3C[C@]21C` (mixture of isomers), the Activity with TM3 is 121.2%.
`COc1cc2c(cc1C(=O)Nc1ccc3[nH]ncc3c1)CCC1C(C)(C)c3nc(C)ncc3C[C@]21C` (mixture of isomers): in [1], the cytotoxic concentration (CC50) at 24 h is under 50 µM. Besides, in the data set with TM3, the Activity was 181.5%.
As for `Cc1ncc2c(n1)C(C)(C)C1CCc3ccc(OCc4cccc([N+](=O)[O-])c4)cc3[C@@]1(C)C2` (mixture of isomers), in the data set on TM3, the Activity was found to be 122.4%.
Regarding `COc1ccc2c(c1)[C@@]1(C)Cc3cnc(C)nc3C(C)(C)C1CC2` (mixture of isomers), the CC50 at 24 h in data set [1] worked out at 151 µM. Further, the Activity with TM3 was found to be 145%.
Consider `CCNC(=O)c1cc2c(cc1OC)[C@@]1(C)Cc3cnc(C)nc3C(C)(C)C1CC2` (mixture of isomers), for which the Activity in the data set with TM3 is listed as 141.3%.
For the compound `COc1cc2c(cc1C(=O)NO)CCC1C(C)(C)c3nc(C)ncc3C[C@]21C` (mixture of isomers), the CC50 at 24 h in data set [1] is 82.2 µM. In addition, the Activity in the data set on TM3 amounted to 189.5%.
Consider `Cc1ncc2c(n1)C(C)(C)C1CCc3ccc(O)cc3[C@@]1(C)C2` (mixture of isomers), for which the Activity with TM3 turned out to be 124.4%.
For `COc1cc2c(cc1C(=O)Nc1nccs1)CCC1C(C)(C)c3nc(C)ncc3C[C@]21C` (mixture of isomers), the Activity in the data set on TM3 was 134.1%.
Still for that read-out and setting: under `C#CCNC(=O)c1cc2c(cc1OC)[C@@]1(C)Cc3cnc(C)nc3C(C)(C)C1CC2` (mixture of isomers) stands 118.1%.
Still for that read-out and setting: under `CCCOc1ccc2c(c1)[C@@]1(C)Cc3cnc(C)nc3C(C)(C)C1CC2` (mixture of isomers) stands 113.2%.
Regarding `CCCCCNC(=O)c1cc2c(cc1OC)[C@@]1(C)Cc3cnc(C)nc3C(C)(C)C1CC2` (mixture of isomers), the 50% cytotoxic concentration (CC50) at 24 h in [1] is under 50 µM. The Activity in the data set on TM3 is given as 171.9%.
In the case of `COc1cc2c(cc1Br)CCC1C(C)(C)c3nc(C)ncc3C[C@]21C` (mixture of isomers), the Activity in the data set on TM3 is recorded as 119.2%.
The same measure, in the same setting: under `COc1cc2c(cc1C(=O)NCC(C)C)CCC1C(C)(C)c3nc(C)ncc3C[C@]21C` (mixture of isomers) stands 114.7%.
For `CCCCNC(=O)c1cc2c(cc1OC)[C@@]1(C)Cc3cnc(C)nc3C(C)(C)C1CC2` (mixture of isomers), the CC50 at 24 h in [1] was under 50 µM. Moreover, in the data set with TM3, the Activity was 166.9%.
For `COc1cc2c(cc1C(=O)NN)CCC1C(C)(C)c3nc(C)ncc3C[C@]21C` (mixture of isomers) the same measures were over 200 µM and 130%.
As to `Cc1ncc2c(n1)C(C)(C)C1CCc3ccc(OC(C)C)cc3[C@@]1(C)C2` (mixture of isomers), the Activity in the data set on TM3 was found to be 129.3%.
Regarding `CNCc1cc2c(cc1OC)[C@@]1(C)Cc3cnc(C)nc3C(C)(C)C1CC2` (mixture of isomers), the CC50 at 24 h in [1] amounted to 124 µM. Besides, in the data set on TM3, the Activity is listed as 176.6%.
Regarding `COc1cc2c(cc1C(=O)NCc1cccc(Cl)c1)CCC1C(C)(C)c3nc(C)ncc3C[C@]21C` (mixture of isomers), the CC50 at 24 h in [1] was under 50 µM. Further, in the data set on TM3, the Activity came to 164.2%.
For `COc1cc2c(cc1N)CCC1C(C)(C)c3nc(C)ncc3C[C@]21C.Cl` (mixture of isomers) the same measures were 127 µM and 146.6%.
The matching figures for `COc1cc2c(cc1C(=O)N(C)C)CCC1C(C)(C)c3nc(C)ncc3C[C@]21C` (mixture of isomers): over 200 µM and 133.1%.
In the case of `COc1cc2c(cc1C(=O)N1CCc3ccccc31)CCC1C(C)(C)c3nc(C)ncc3C[C@]21C` (mixture of isomers), the Activity in the data set on TM3 is 116.9%.
With `COc1cc2c(cc1C(=O)Nc1ccccc1)CCC1C(C)(C)c3nc(C)ncc3C[C@]21C` (mixture of isomers), the cytotoxic concentration (CC50) at 24 h in data set [1] was under 50 µM. Besides, the Activity with TM3 was 156.8%.
As to `COc1cc2c(cc1C(=O)NC1CCCC1)CCC1C(C)(C)c3nc(C)ncc3C[C@]21C` (mixture of isomers), the Activity in the data set on TM3 was 122.4%.
For the compound `COc1cc2c(cc1C(=O)Nc1ncco1)CCC1C(C)(C)c3nc(C)ncc3C[C@]21C` (mixture of isomers), the half-maximal cytotoxic concentration (CC50) at 24 h in data set [1] was under 50 µM. Also, in the data set on TM3, the Activity is recorded as 176.9%.
Consider `C=CCOc1ccc2c(c1)[C@@]1(C)Cc3cnc(C)nc3C(C)(C)C1CC2` (mixture of isomers), for which, in the data set on TM3, the Activity is given as 142%.
Take `COc1ccc(-c2oc3c(CC=C(C)C)c(O[C@@H]4O[C@H](CO)[C@@H](O)[C@H](O)[C@H]4O)cc(O)c3c(=O)c2O[C@@H]2O[C@@H](C)[C@H](O)[C@@H](O)[C@H]2O)cc1` [ICARIIN]: in [1], the CC50 at 24 h was over 200 µM. Further, the Activity with TM3 was found to be 139.6%.
Consider `C[C@]12CC[C@H]3[C@@H](CCC4=CC(=O)CC[C@@]43C)[C@@H]1CC[C@@H]2O` [TESTOSTERONE], for which the Ratio in the data set filed under Rattus norvegicus [2] was determined as 2. In addition, the inhibition result in the data set with Rattus norvegicus [3] was “Active”. In addition, the Activity with Rattus norvegicus [4] is reported as 1.53 g; in the data set with Rattus norvegicus [5], 145.38 nmol/L; in [6], 79.8%; in the data set with Rattus norvegicus [7] it was 1.64 g; in data set [9], 88.8%; in [10], “Non-Toxic”. The result in the data set with Rattus norvegicus [8] and in the data set on Rattus norvegicus [11] was Active.
